Measured values as given in patent US20150141381A1, “TETRACYCLINE COMPOUNDS HAVING TARGET THERAPEUTIC ACTIVITIES” (Paratek Pharmaceuticals, Inc., priority 2001, published 2015).
Read-outs that look alike come from different tables or passages of the source.

Experiments:
S. aureus RN450 = test: In Vitro Anti-Bacterial Activity Assay (MIC), gram positive; format: cell-based; details: for MIC: Staphylococcus aureus, RN450, 18 h
E. coli mL308 225 = test: In Vitro Anti-Bacterial Activity Assay (MIC), gram negative; format: cell-based; details: for MIC: Escherichia coli, ML308225, 18 h
[1] = gram positive bacteria, read-out: Antibiotic Activity Gram + (MIC)
[2] = gram negative bacteria, read-out: Antibiotic Activity Gram − (MIC)
[3] = MIC class, Table 3, read-out: Antibiotic Activity Gram +
[4] = MIC class, Table 3, read-out: Antibiotic Activity Gram −
[5] = MIC class, Table 3 (Continued), read-out: Gram+ activity
[6] = MIC class, Table 3 (Continued), read-out: Gram− activity

Structure (SMILES) | MIC (S. aureus RN450; [1]) [µg/mL] | MIC (E. coli mL308 225; [2]) [µg/mL] | MIC (S. aureus RN450; [3]) [µg/mL] | MIC (E. coli mL308 225; [4]) [µg/mL] | also measured
CCCCOc1ccc(-c2ccc(N(C)C)cc2)c2c1C(=O)C1=C(O)[C@]3(O)C(=O)C(C(N)=O)=C(O)[C@@H](N(C)C)[C@@H]3C[C@@H]1C2 | < 4 | > 4 |  |  | 
CN(C)CCN(C)Cc1ccc(-c2cc(N(C)C)c3c(c2O)C(=O)C2=C(O)[C@]4(O)C(=O)C(C(N)=O)=C(O)[C@@H](N(C)C)[C@@H]4C[C@@H]2C3)[nH]1 | > 4 | > 4 |  |  | 
CN(C)[C@@H]1C(O)=C(C(N)=O)C(=O)[C@@]2(O)C(O)=C3C(=O)c4c(ccc(NC5CC(C)(C)NC(C)(C)C5)c4O)C[C@H]3C[C@@H]12 [LF] |  |  | < 4 | > 4 | 
CC(C)CNCc1cc(N(C)C)c2c(c1O)C(=O)C1=C(O)[C@]3(O)C(=O)C(C(N)=O)=C(O)[C@@H](N(C)C)[C@@H]3C[C@@H]1C2 [drawing 3475] |  |  |  |  | Antibiotic Activity Gram + (MIC) (S. aureus RN450; gram positive bacteria): * (compounds with an MIC of greater than 4 μg/ml are indicated with *); Antibiotic Activity Gram − (MIC) (E. coli mL308 225; gram negative bacteria): * (compounds with an MIC of greater than 4 μg/ml are indicated with *)
CC(O)C#Cc1ccc(O)c2c1C[C@H]1C[C@H]3[C@H](N(C)C)C(O)=C(C(N)=O)C(=O)[C@@]3(O)C(O)=C1C2=O (stereo partly shown) [BD] |  |  | < 4 | < 4 | 
C[C@H]1c2c(-c3ccccc3)cc(-c3ccccc3)c(O)c2C(=O)C2=C(O)[C@]3(O)C(=O)C(C(N)=O)=C(O)[C@@H](N(C)C)[C@@H]3[C@@H](O)[C@@H]21 | < 4 | < 4 |  |  | 
COC(=O)c1cc(N(C)C)c2c(c1O)C(=O)C1=C(O)[C@]3(O)C(=O)C(C(N)=O)=C(O)C(N(C)C)[C@@H]3C[C@@H]1C2 (stereo partly shown) [MO] |  |  | > 4 | > 4 | 
CCOC(=O)COC1=C(C(N)=O)C(=O)[C@@]2(O)C(O)=C3C(=O)c4c(O)cccc4C[C@H]3C[C@H]2[C@@H]1N(C)C [OR] |  |  | > 4 | > 4 | 
CC(=O)N(Cc1cc(N(C)C)c2c(c1O)C(=O)C1=C(O)[C@]3(O)C(=O)C(C(N)=O)=C(O)[C@@H](N(C)C)[C@@H]3C[C@@H]1C2)CC(C)(C)C | > 4 | > 4 |  |  | 
COc1ccc(CNCCc2ccccc2)cc1-c1ccc(O)c2c1C[C@H]1C[C@H]3[C@H](N(C)C)C(O)=C(C(N)=O)C(=O)[C@@]3(O)C(O)=C1C2=O | < 4 | < 4 |  |  | 
CN(C)c1cc(CNCc2ccc(OC(F)(F)F)cc2)c(O)c2c1C[C@H]1C[C@H]3[C@H](N(C)C)C(O)=C(C(N)=O)C(=O)[C@@]3(O)C(O)=C1C2=O [PJ] |  |  | < 4 | > 4 | 
CN(C)c1cc(CN2CCC3(CCCC3)CC2)c(O)c2c1C[C@H]1C[C@H]3[C@H](N(C)C)C(O)=C(C(N)=O)C(=O)[C@@]3(O)C(O)=C1C2=O | < 4 | < 4 |  |  | 
CN(C)c1cc(CNC(=O)[C@@H]2CCCN2C)c(O)c2c1C[C@H]1C[C@H]3[C@H](N(C)C)C(O)=C(C(N)=O)C(=O)[C@@]3(O)C(O)=C1C2=O | < 4 | > 4 |  |  | 
COc1ccc(CNCc2ccc(-c3ccc(O)c4c3C[C@H]3C[C@H]5[C@H](N(C)C)C(O)=C(C(N)=O)C(=O)[C@@]5(O)C(O)=C3C4=O)cc2)cc1 [GX] |  |  | < 4 | < 4 | 
C[C@H]1c2ccc(CNCCC(F)(F)F)c(O)c2C(=O)C2=C(O)[C@]3(O)C(=O)C(C(N)=O)=C(O)[C@@H](N(C)C)[C@@H]3[C@@H](O)[C@@H]21 | < 4 | < 4 |  |  | 
CCCN(CCC)Cc1ccc(-c2ccc(O)c3c2C[C@H]2C[C@H]4[C@H](N(C)C)C(O)=C(C(N)=O)C(=O)[C@@]4(O)C(O)=C2C3=O)c2ccccc12 | < 4 | < 4 |  |  | 
COCc1cncc(-c2ccc(O)c3c2C[C@H]2C[C@H]4[C@H](N(C)C)C(O)=C(C(N)=O)C(=O)[C@@]4(O)C(O)=C2C3=O)c1 | < 4 | < 4 |  |  | 
CN(C)[C@@H]1C(O)=C(C(N)=O)C(=O)[C@@]2(O)C(O)=C3C(=O)c4c(O)ccc(N5CCOCC5)c4C[C@H]3C[C@@H]12 [drawing 3548] | < 4 | < 4 |  |  | 
COc1cccc(C/C=C\c2ccc(O)c3c2C[C@H]2C[C@H]4[C@H](N(C)C)C(O)=C(C(N)=O)C(=O)[C@@]4(O)C(O)=C2C3=O)c1O | < 4 | < 4 |  |  | 
CC1c2ccc(C3C=CCC3)c(O)c2C(=O)C2=C(O)[C@]3(O)C(=O)C(C(N)=O)=C(O)[C@@H](N(C)C)[C@@H]3[C@@H](O)[C@@H]21 (stereo partly shown) |  |  |  |  | MIC (S. aureus RN450; [5]): < 4 µg/mL; MIC (E. coli mL308 225; [6]): < 4 µg/mL
CC(C)c1ccc(CNc2cc(N(C)C)c3c(c2O)C(=O)C2=C(O)[C@]4(O)C(=O)C(C(N)=O)=C(O)[C@@H](N(C)C)[C@@H]4C[C@@H]2C3)cc1 [NN] |  |  | < 4 | > 4 | 
CN(C)[C@@H]1C(O)=C(C(N)=O)C(=O)[C@@]2(O)C(O)=C3C(=O)c4c(O)ccc(-c5cncc(CO)c5)c4C[C@H]3C[C@@H]12 | < 4 | > 4 |  |  | 

Structure (SMILES) | MIC (S. aureus RN450; [1]) [µg/mL] | MIC (E. coli mL308 225; [2]) [µg/mL] | MIC (S. aureus RN450; [3]) [µg/mL] | MIC (E. coli mL308 225; [4]) [µg/mL] | also measured
CN(C)c1cc(NCc2ccccc2OC(C)(C)C)c(O)c2c1C[C@H]1C[C@H]3[C@H](N(C)C)C(O)=C(C(N)=O)C(=O)[C@@]3(O)C(O)=C1C2=O | < 4 | > 4 |  |  | 
CN(C)c1cc(CN2CCC(C(F)F)CC2)c(O)c2c1C[C@H]1C[C@H]3[C@H](N(C)C)C(O)=C(C(N)=O)C(=O)[C@@]3(O)C(O)=C1C2=O | < 4 | < 4 |  |  | 
CCCCN(c1ccc2c(c1O)C(=O)C1=C(O)[C@]3(O)C(=O)C(C(N)=O)=C(O)[C@@H](N(C)C)[C@@H]3C[C@@H]1C2)C1CCN(C)CC1 [JR] |  |  | > 4 | > 4 | 
CN(C)c1cc(-c2ccoc2)c(O)c2c1C[C@H]1C[C@H]3[C@H](N(C)C)C(O)=C(C(N)=O)C(=O)[C@@]3(O)C(O)=C1C2=O [KU] |  |  | < 4 | > 4 | 
CN(C)[C@@H]1C(O)=C(C(N)=O)C(=O)[C@@]2(O)C(O)=C3C(=O)c4c(O)c(CNC5CCCC5)cc(-c5ccoc5)c4C[C@H]3C[C@@H]12 | < 4 | > 4 |  |  | 
CC#Cc1cc(N(C)C)c2c(c1O)C(=O)C1=C(O)[C@]3(O)C(=O)C(C(N)=O)=C(O)[C@@H](N(C)C)[C@@H]3C[C@@H]1C2 |  |  |  |  | MIC (S. aureus RN450; [5]): > 4 µg/mL; MIC (E. coli mL308 225; [6]): > 4 µg/mL
Cc1ccc(-c2ccc(O)c3c2C[C@H]2C[C@H]4[C@H](N(C)C)C(O)=C(C(N)=O)C(=O)[C@@]4(O)C(O)=C2C3=O)cc1N | < 4 | < 4 |  |  | 
CN(C)[C@@H]1C(O)=C(C(N)=O)C(=O)[C@@]2(O)C(O)=C3C(=O)c4c(O)ccc(C(=O)C(=O)N5CCOCC5)c4C[C@H]3C[C@@H]12 | < 4 | > 4 |  |  | 
CN(C)c1cc(NC(=O)Oc2ccccc2)c(O)c2c1C[C@H]1C[C@H]3[C@H](N(C)C)C(O)=C(C(N)=O)C(=O)[C@@]3(O)C(O)=C1C2=O [DT] |  |  |  |  | MIC (S. aureus RN450; read-out: Antibiotic Activity Gram +): > 4 µg/mL; MIC (E. coli mL308 225; read-out: Antibiotic Activity Gram −): > 4 µg/mL
CN(C)[C@H]1C(O)=C(C(N)=O)C(=O)[C@@]2(O)C(O)=C3C(=O)c4c(O)ccc(-c5ccc(NC(=O)C(C)(C)C)cc5)c4C[C@H]3C[C@@H]12 [GT] |  |  | < 4 | > 4 | 
CN(C)[C@@H]1C(OCc2ccccc2)=C(C(N)=O)C(=O)[C@@]2(O)C(O)=C3C(=O)c4c(O)ccc(-c5ccc(C(F)(F)F)cc5)c4C[C@H]3C[C@@H]12 [OU] |  |  | < 4 | > 4 | 
C[C@H]1c2ccc(CNC(=O)c3ccccc3)c(O)c2C(=O)C2=C(O)[C@]3(O)C(=O)C(C(N)=O)=C(O)[C@@H](N(C)C)[C@@H]3[C@@H](O)[C@@H]21 [JO] |  |  | < 4 | > 4 | 
NC(=O)C1=C(O)C[C@@H]2C[C@@H]3Cc4cccc(O)c4C(=O)C3=C(O)[C@]2(O)C1=O | < 4 | < 4 |  |  | 
CN(C)[C@@H]1C(O)=C(C(N)=O)C(=O)[C@@]2(O)C(O)=C3C(=O)c4c(O)ccc(Cl)c4C=C3C[C@@H]12 | < 4 | < 4 |  |  | 
CC(C)NCc1ccc(O)c2c1C[C@H]1C[C@H]3C(N(C)C)C(O)=C(C(N)=O)C(=O)[C@@]3(O)C(O)=C1C2=O (stereo partly shown) [KK] |  |  | < 4 | < 4 | 
COc1ccc(CN(C)C)cc1-c1cc(C(C)(C)C)c(O)c2c1C[C@H]1C[C@H]3[C@H](N(C)C)C(O)=C(C(N)=O)C(=O)[C@@]3(O)C(O)=C1C2=O | < 4 | > 4 |  |  | 
CN(C)c1cc(CN2CCc3ccccc3C2)c(O)c2c1C[C@H]1C[C@H]3[C@H](N(C)C)C(O)=C(C(N)=O)C(=O)[C@@]3(O)C(O)=C1C2=O | < 4 | < 4 |  |  | 
CC(C)Cc1cc(N(C)C)c2c(c1O)C(=O)C1=C(O)[C@]3(O)C(=O)C(C(N)=O)=C(O)[C@@H](N(C)C)[C@@H]3C[C@@H]1C2 | < 4 | < 4 |  |  | 
CN(C)[C@@H]1C(O)=C(C(N)=O)C(=O)[C@@]2(O)C(O)=C3C(=O)c4c(O)ccc(-c5cccc(C(N)=O)c5)c4C[C@H]3C[C@@H]12 [CN] |  |  | < 4 | < 4 | 
CN(C)c1cc(CNCc2ccc(C(=O)O)cc2)c(O)c2c1C[C@H]1C[C@H]3[C@H](N(C)C)C(O)=C(C(N)=O)C(=O)[C@@]3(O)C(O)=C1C2=O | > 4 | > 4 |  |  | 
CN(C)c1cc(CN2CCCCC2)c(O)c2c1C[C@H]1C[C@H]3[C@H](N(C)C)C(O)=C(C(N)=O)C(=O)[C@@]3(O)C(O)=C1C2=O | < 4 | < 4 |  |  | 
CN(C)c1cc(CNC(=O)Nc2ccc(OC(F)(F)F)cc2)c(O)c2c1C[C@H]1C[C@H]3[C@H](N(C)C)C(O)=C(C(N)=O)C(=O)[C@@]3(O)C(O)=C1C2=O [FO] |  |  | < 4 | > 4 | 
